The subject of test [1] is human lung large cell carcinoma, MDR negative (NCI-H460) cells. In words: 48-hour cellular proliferation assay (sulforhodamine staining), NCI-H460 cells. In kind it is cell-based. The following applies: 10^−4 M compound; for inhibition at 100 µM: Homo sapiens, read-out: NCI-460 % inhibition at 10^−4 M. The protocol: (§1) Compounds of this invention were tested in a 48-hour cellular proliferation assay which uses human colon adenocarcinoma, MDR positive (HCT-15) cells, and human lung large cell carcinoma, MDR negative (NCI-H460) cells, in the 96-well microtitre format described in Skehan P., et al. New Colorimetric Cytotoxicity Assay for Anticancer Drug Screening. 1990, J. Natl. Cancer Inst. 82:1107-1112, hereby incorporated by reference. Briefly, the wells of a microtitre plate were charged sequentially with cultured cells and compounds of the invention (1.0×10^−4 to 1.0×10^−11 M in 10% DMSO prepared by dissolving compounds of the invention in DMSO and adding 11 μL of the DMSO solution to 100 μL of culture medium for a final DMSO concentration of 10%). Two of the following controls were also present in each microtitre plate: a solvent (DMSO) control without drug that yielded a 0% inhibition level and a trichloroacetic acid-treated well that yielded a 100% inhibition level. The cells were grown in culture (37° C., 5% CO2 atmosphere) for 48 hours then fixed by the addition of trichloroacetic acid. The wells were stained with sulforhodamine, washed with 1% acetic acid, and treated with 0.01 M tris buffer (100 μL) to solubilize the adherent dye. The absorbance of the dye solution was measured with a Molecular Devices SpectraMax340 plate reader. The percent inhibition values were obtained by calculating the proportional response of the experimental values to the absorbance values of the controls.

Test [2] deals with human colon adenocarcinoma, MDR positive (HCT-15) cells. In words: 48-hour cellular proliferation assay (sulforhodamine staining), HCT-15 cells. The following applies: 10^−4 M compound, HCT-15 cells (MDR positive); for inhibition at 100 µM: Homo sapiens. It counts as cell-based. The protocol:
as §1

Structures can show the parent of a compound that is named as a salt.

In general, inhibition refers to the percentage by which the read-out fell short of the control. Take `COc1cc(OS(=O)(=O)c2ccc3c(c2)CCN3C)cc(OC)c1OC` [Example 46, 3,4,5-trimethoxyphenyl 1-methyl-5-indolinesulfonate]: the inhibition at 100 µM in test [1] was determined as 99.5%; in test [2], 99.6%. As for `COc1cc(NS(=O)(=O)c2ccc(C(F)(F)F)cc2)cc(OC)c1OC` [Example 4, 4-trifluoromethyl-N-(3,4,5-trimethoxyphenyl)benzenesulfonamide], the inhibition at 100 µM in test [1] is 99.8%; in test [2], 82.6%. For the compound `COc1ccc(S(=O)(=O)C(C)(C)c2cc(OC)c(OC)c(OC)c2)cc1` [Example 95, 1,2,3-trimethoxy-5-(1-((4-methoxyphenyl)sulfonyl)-1-methylethyl)benzene], the inhibition at 100 µM stood at 9.1% in test [1] and 84.8% in test [2]. For the compound `COc1ccc(NC(=O)c2cc(OC)c(OC)c(OC)c2)cc1O` [Example 22, N-(3-hydroxy-4-methoxyphenyl)-3,4,5-trimethoxybenzamide], the inhibition at 100 µM in test [1] was 99.5%; in test [2], 99.8%. With `COc1ccc(S(=O)(=O)Nc2cc(OC)c(OC)c(OC)c2)cc1[N+](=O)[O-]` [Example 9, 4-methoxy-3-nitro-N-(3,4,5-trimethoxyphenyl)benzenesulfonamide], the inhibition at 100 µM is 47.4% in test [1] and 77.2% in test [2]. The matching figures for `COc1cc(NS(=O)(=O)c2ccc(NC(=O)CCl)cc2)cc(OC)c1OC` [Example 7, 4-((2-chloroacetyl)amino)-N-(3,4,5-trimethoxyphenyl)benzenesulfonamide]: 89.2% and 96.7%. With `COc1ccc(C[S+]([O-])c2cc(OC)c(OC)c(OC)c2)cc1N` (stereo not drawn) [Example 90, 2-methoxy-5-(((3,4,5-trimethoxyphenyl)sulfinyl)methyl)aniline], the inhibition at 100 µM in test [1] was determined as 99.8%; in test [2] it was 99.5%.

For the compound `COc1cc(S(=O)(=O)Nc2ccc3ccn(C)c3c2)cc(OC)c1OC` [Example 30, 3,4,5-trimethoxy-N-(1-methyl-1H-indol-6-yl)benzenesulfonamide], the values for the inhibition at 100 µM in test [1] and in test [2] were 83.8% and 94.9%, respectively. The matching figures for `COc1cc(S(=O)(=O)N(CCN(C)C)c2ccc3c(ccn3C)c2)cc(OC)c1OC` [Example 38, 3,4,5-trimethoxy-N-(2-(dimethylamino)ethyl)-N-(1-methyl-1H-indol-5-yl)benzenesulfonamide]: 81% and 87.5%. On to `COc1cc(NS(=O)(=O)c2ccccc2[N+](=O)[O-])cc(OC)c1OC` [Example 8, 2-nitro-N-(3,4,5-trimethoxyphenyl)benzenesulfonamide], for which the inhibition at 100 µM amounted to 50% in test [1] and 53.8% in test [2].

With `COc1cc(S(=O)(=O)Nc2cccc3c2ccn3C)cc(OC)c1OC` [Example 29, 3,4,5-trimethoxy-N-(1-methyl-1H-indol-4-yl)benzenesulfonamide], the inhibition at 100 µM in test [1] amounted to 90.8%; in test [2] it was 95.1%. For `COc1ccc(CSc2cc(OC)c(OC)c(OC)c2)cc1N` [Example 89, 2-methoxy-5-(((3,4,5-trimethoxyphenyl)sulfanyl)methyl)aniline], the inhibition at 100 µM in test [1] and in test [2] was 99.9% throughout. For `COc1ccc(C(C)(C)S(=O)(=O)c2cc(OC)c(OC)c(OC)c2)cc1N` [Example 92, 2-methoxy-5-(1-methyl-1-((3,4,5-trimethoxyphenyl)sulfonyl)ethyl)aniline], the results for the inhibition at 100 µM in test [1] and in test [2] were 9.1% and 67.1%, respectively.

Take `COc1cc(S(=O)(=O)Nc2ccc3[nH]ccc3c2)cc(OC)c1OC` [Example 31, N-(1H-indol-5-yl)-3,4,5-trimethoxybenzenesulfonamide]: the inhibition at 100 µM in test [1] was determined as 95.1%; in test [2] it was 98.6%. On to `COc1cc(OS(=O)(=O)c2ccc(N(C)C)cc2)cc(OC)c1OC` [Example 44, (3,4,5-trimethoxyphenyl)-4-(dimethylamino)benzenesulfonate], for which the values for the inhibition at 100 µM in test [1] and in test [2] were 99.9% and 100%, respectively. `COc1cc(S(=O)(=O)Oc2ccc3[nH]ccc3c2)cc(OC)c1OC` [Example 39, 1H-indol-5-ol, (3,4,5-trimethoxybenzenesulfonate)ester]: the “NCI-460 % inhibition at 10^−4 M” value in test [1] came out at 100.0%. In addition, the “HCT-15 % inhibition at 10^−4 M” value in test [2] is 100.0%. Consider `COc1cc(S(=O)(=O)Nc2ccc3c(c2)cc(C)n3C)cc(OC)c1OC` [Example 32, N-(1,2-dimethyl-1H-indol-5-yl)-3,4,5-trimethoxybenzenesulfonamide], for which the inhibition at 100 µM in test [1] and in test [2] was 99.8% in each case. For `COc1cc(NS(=O)(=O)c2ccc([N+](=O)[O-])cc2)cc(OC)c1OC` [Example 5, 4-nitro-N-(3,4,5-trimethoxyphenyl)benzenesulfonamide], the inhibition at 100 µM in test [1] turned out to be 99.9%; in test [2], 68.5%. As for `COc1cc(NS(=O)(=O)c2ccc(OC(F)(F)F)cc2)cc(OC)c1OC` [Example 3, 4-trifluoromethoxy-N-(3,4,5-trimethoxyphenyl)benzenesulfonamide], the inhibition at 100 µM worked out at 100% in test [1] and 94.4% in test [2]. Turning to “3,4-dimethoxy-N-(3,4,5-trimethoxyphenyl)benzamide [Example 2]”, the “NCI-460 % inhibition at 10^−4 M” value in test [1] was 99.6%. Besides, in test [2], the “HCT-15 % inhibition at 10^−4 M” value is listed as greater than 95%.

Consider `COc1ccc(NS(=O)(=O)c2cc(OC)c(OC)c(OC)c2)cc1N` [Example 28, N-(3-amino-4-methoxyphenyl)-3,4,5-trimethoxybenzenesulfonamide hydrochloride], for which the inhibition at 100 µM in test [1] is 99.8%; in test [2], 99.9%.

With `COc1cc(S(=O)(=O)Oc2ccc3[nH]ccc3c2)cc(OC)c1OC` [Example 42, 1H-indol-5-yl 3,4,5-trimethoxybenzenesulfonate], the inhibition at 100 µM in test [1] and in test [2] was 100% in each case. Regarding `COc1cc(S(=O)(=O)Nc2ccc3ncn(C)c3c2)cc(OC)c1OC` [Example 35, 3,4,5-trimethoxy-N-(1-methyl-1H-benzimidazol-6-yl)benzenesulfonamide], the inhibition at 100 µM was determined as 34.5% in test [1] and 65.2% in test [2]. In the case of `COc1ccc(SCc2cc(OC)c(OC)c(OC)c2)cc1` [Example 93, 1,2,3-trimethoxy-5-(((4-methoxyphenyl)sulfanyl)methyl)benzene], the inhibition at 100 µM in test [1] was 98.6%; in test [2] it was 99.9%. Turning to `COc1cc(NS(=O)(=O)c2c[nH]c3ccc(N)cc23)cc(OC)c1OC` [Example 17, 5-amino-N-(3,4,5-trimethoxyphenyl)-1H-indole-3-sulfonamide], the inhibition at 100 µM in test [1] was less than 9.1%. For the compound `COc1ccc(S(=O)(=O)Oc2cc(OC)c(OC)c(OC)c2)cc1N` [Example 43, (3,4,5-trimethoxyphenyl) 3-amino-4-methoxybenzenesulfonate], the inhibition at 100 µM in test [1] and in test [2] was 100% each time.

Consider `COc1cc(S(=O)(=O)Nc2c(F)c(F)c(F)c(F)c2F)cc(OC)c1OC` [Example 27, 3,4,5-trimethoxy-N-(2,3,4,5,6-pentafluorophenyl)benzenesulfonamide], for which the inhibition at 100 µM in test [1] amounted to 61.6%; in test [2], 57%.

On to `COc1cc(OS(=O)(=O)c2ccc(C)cc2)cc(OC)c1OC` [Example 41, (3,4,5-trimethoxyphenyl) 4-methylbenzenesulfonate], for which the results for the inhibition at 100 µM in test [1] and in test [2] were 99.5% and 99.8%, respectively. `COc1ccc(S(=O)(=O)Cc2cc(OC)c(OC)c(OC)c2)cc1N` [Example 96, 2-methoxy-5-((3,4,5-trimethoxybenzyl)sulfonyl)aniline]: the inhibition at 100 µM was determined as 99.9% in test [1] and 99.8% in test [2]. Take `COc1cc(NS(=O)(=O)c2ccc(N)cc2)cc(OC)c1OC` [Example 6, 4-amino-N-(3,4,5-trimethoxyphenyl)benzenesulfonamide]: the inhibition at 100 µM in test [1] is greater than 95%; in test [2], 54.8%. Regarding `COc1cc(NS(=O)(=O)c2cc(OC)c(OC)c(OC)c2)ccc1F` [Example 25, N-(4-fluoro-3-methoxyphenyl)-3,4,5-trimethoxybenzenesulfonamide], the inhibition at 100 µM is 57.8% in test [1] and 62.1% in test [2].

As to `COc1cc(S(=O)(=O)N(C)c2ccc3c(ccn3C)c2)cc(OC)c1OC` [Example 37, 3,4,5-trimethoxy-N-methyl-N-(1-methyl-1H-indol-5-yl)benzenesulfonamide], the inhibition at 100 µM in test [1] was 100%; in test [2], 99.9%. Regarding `COc1cc(S(=O)(=O)Nc2ccc3c(c2)ncn3C)cc(OC)c1OC` [Example 36, 3,4,5-trimethoxy-N-(1-methyl-1H-benzimidazol-5-yl)benzenesulfonamide], the inhibition at 100 µM in test [1] is 99.5%; in test [2] it was 99.3%. On to `COc1cc(NS(=O)(=O)c2ccc3c(ccn3C)c2)cc(OC)c1OC` [Example 19, 1-methyl-N-(3,4,5-trimethoxyphenyl)-1H-indole-5-sulfonamide], for which the inhibition at 100 µM in test [1] is 100%.

The values are drawn from patent US6924304B2, “Cell proliferation inhibitors” (Abbott Laboratories, priority 1999, dated 2005).
